# In US10729672B2 (Wyeth LLC, priority 2005, dated 2020):
# Experiments:
# Format in all cases: cell-based
# [1] = system: MDA-MB-361 [HER-2+ (non-amplified); adenocarcinoma; ATCC HTB 27] cells; experiment: SRB cell survival / growth inhibition, MDA-MB-361 cells; conditions: MDA-MB-361, lower levels of HER-2 without amplification
# Protocol: (§1) The combination was tested in three breast cancer cell lines of differing genotypes.
# (§2) Cells from each of these cell lines were incubated in the presence of a range of concentrations ([…]) for each drug. […] Compound dilutions were prepared in the same medium, at 2× final concentration, and 100 μl of the drug dilution was added to the cell-containing wells.
# (§3) Serial dilutions of one compound were prepared in the presence of a fixed dose of a second compound. Alternatively, a checkerboard dilution series was employed. Cells were cultured for three days in the presence of the drugs. Untreated cells were included as controls. The percentage of surviving cells was determined using sulforhodamine B (SRB, Sigma-Aldrich, St Louis, Mo.), a protein binding dye. Cellular protein was precipitated in each well by the addition of 50 μl 50% cold trichloroacetic acid. After 1 hour, the plates were washed extensively in water and dried. SRB dye reagent (0.4% SRB in 1% acetic acid, 80 μl per well) was added and plates were kept at room temperature for ten minutes. […] Cell-associated dye was dissolved in 10 mM Tris (150 μl) and the absorbance was read at 540 nm in a microtiter plate reader. The concentration of compound that caused a fixed percentage inhibition of growth was determined by plotting cell survival (relative to untreated cells) against the compound dose.
# [2] = system: BT474 [HER-2+ (amplified); ATCC HTB-20] cells; experiment: SRB cell survival / growth inhibition, BT474 cells
# Protocol: as §1, §2, §3
# [3] = system: MCF-7 [HER-2−, EGFR−; adenocarcinoma; ATCC HTB22] cells; experiment: SRB cell survival / growth inhibition, MCF-7 cells; conditions: MCF-7, no HER-2
# Protocol: as §1, §2, §3
compound,measurement,setting,value
"CCOc1cc2ncc(C#N)c(Nc3ccc(OCc4ccccn4)c(Cl)c3)c2cc1NC(=O)/C=C/CN(C)C [HKI-272, (E)-N-{4-[3-chloro-4-(2-pyridinylmethoxy)anilino]-3-cyano-7-ethoxy-6-quinolinyl}-4-(dimethylamino)-2-butenamide]",sensitivity of the cell line to the single agent,[1],less sensitive
same,sensitivity of the cell line to the single agent,[2],highly sensitive
same,sensitivity of the cell line to the single agent,[3],resistant
